Reference: ChEMBL document CHEMBL2151027, “BACE Inhibitors: Potential Treatment of Alzheimer's Disease, Dementia, and Related Neurodegenerative Disorders (B): 3-Amino-4-fluoro-1H-isoindol Derivatives: Patent Highlight” (ACS Med Chem Lett, 2012)
pIC50: −log10 of the molar value.

How the values were obtained:
Beta-secretase 1 [1] = target: T1, Beta-secretase 1 (Homo sapiens, UniProt P56817); assay: Inhibition of BACE1 by diluted TR-FRET assay
Beta-secretase 1 [2] = target: T1, Beta-secretase 1; assay: Inhibition of BACE1 by secreted AAPbeta release assay

T1 sequence (P56817 whole entry): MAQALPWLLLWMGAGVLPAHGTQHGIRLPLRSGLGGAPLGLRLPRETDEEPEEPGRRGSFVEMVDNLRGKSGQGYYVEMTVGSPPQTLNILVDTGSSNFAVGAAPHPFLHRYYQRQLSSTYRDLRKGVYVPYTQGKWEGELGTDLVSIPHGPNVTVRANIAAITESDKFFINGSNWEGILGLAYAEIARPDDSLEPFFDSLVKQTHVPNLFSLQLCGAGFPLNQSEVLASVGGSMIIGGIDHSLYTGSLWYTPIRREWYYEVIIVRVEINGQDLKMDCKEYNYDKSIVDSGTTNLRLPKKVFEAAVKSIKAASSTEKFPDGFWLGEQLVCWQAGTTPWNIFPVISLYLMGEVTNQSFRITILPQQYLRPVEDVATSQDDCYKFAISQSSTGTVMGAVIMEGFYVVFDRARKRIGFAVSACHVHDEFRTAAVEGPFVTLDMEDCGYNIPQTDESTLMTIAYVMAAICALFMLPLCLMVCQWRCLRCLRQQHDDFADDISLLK

pIC50 (Beta-secretase 1 [1])	pIC50 (Beta-secretase 1 [2])	Compound
8.10	8.70	CCn1cc([C@]2(c3cccc(-c4cncc(C#N)c4)c3)N=C(N)c3c(F)cccc32)cc(C)c1=O
8.22	8.40	CC#Cc1cncc(-c2cccc([C@@]3(c4cc(C(F)F)c(=O)n(CC)c4)N=C(N)c4c(F)cccc43)c2)c1
–	8.70	CC#Cc1ccnc(-c2cccc([C@@]3(c4cc(C)c(=O)n(CC)c4)N=C(N)c4c(F)cccc43)c2)c1
